Assay results: US8022206B2 (OSI Pharmaceuticals, LLC, priority 2008, dated 2011)
Values belong to the compound of their own block, whether it stands above or below them.

Legend:
[1] = biological target: RON (human) (Homo sapiens, UniProt Q04912); assay: RON (human) AlphaScreen kinase assay, Km of ATP; type: biochemical; conditions: AlphaScreen, Km of ATP; read-out: RON biochemical IC50
Method: (§1) Someone skilled in the art will appreciate that a variety of assay formats may be used to determine the activity of the compounds of this invention. For example, AlphaScreen (Amplified Luminescent Proximity Homogeneous Assay) technology was used with the kinases described below. Assay ATP concentrations for individual kinases are included in the text.
Desired compound is added in a final concentration of 1% DMSO with control being vehicle of DMSO alone. […] Enzyme is added to initiate the reaction and incubated for 30 min at RT. In subdued light, appropriate amount of PT66 donor and acceptor beads (diluted 1:260 from manufacturer's provision in a 25 mM Tris HCl (pH=7.5), 200 mM NaCl, 100 mM EDTA, 0.3% BSA buffer) are added to the wells. The plates, incubated for 1 h, are read on an AlphaQuest plate reader.

[2] = biological target: MET (human) (Homo sapiens, UniProt P08581); assay: MET (human) AlphaScreen kinase assay, Km of ATP; type: biochemical; conditions: AlphaScreen, Km of ATP; read-out: Met biochemical IC50
Method: as §1
Desired compound is added in a final concentration of 1% DMSO with control being vehicle of DMSO alone. MET is diluted to the optimized concentration (optimized on a lot-by-lot basis) in an enzyme diluent buffer (50 mM Tris pH=7.4, 1% glycerol, 0.03% Brij35, 0.24 mM EGTA, 1 mM DTT, and 0.003% BSA). Enzyme is added to initiate the reaction and incubated for 60 min at RT. In subdued light, appropriate amount of PT66 donor and acceptor beads (diluted 1:260 from manufacturer's provision in a 25 mM Tris HCl (pH=7.5), 400 mM NaCl, 100 mM EDTA, 0.3% BSA buffer) are added to the wells. The plates, incubated for 1 h, are read on an AlphaQuest plate reader

Chain of MET (human) (P08581 25-1390): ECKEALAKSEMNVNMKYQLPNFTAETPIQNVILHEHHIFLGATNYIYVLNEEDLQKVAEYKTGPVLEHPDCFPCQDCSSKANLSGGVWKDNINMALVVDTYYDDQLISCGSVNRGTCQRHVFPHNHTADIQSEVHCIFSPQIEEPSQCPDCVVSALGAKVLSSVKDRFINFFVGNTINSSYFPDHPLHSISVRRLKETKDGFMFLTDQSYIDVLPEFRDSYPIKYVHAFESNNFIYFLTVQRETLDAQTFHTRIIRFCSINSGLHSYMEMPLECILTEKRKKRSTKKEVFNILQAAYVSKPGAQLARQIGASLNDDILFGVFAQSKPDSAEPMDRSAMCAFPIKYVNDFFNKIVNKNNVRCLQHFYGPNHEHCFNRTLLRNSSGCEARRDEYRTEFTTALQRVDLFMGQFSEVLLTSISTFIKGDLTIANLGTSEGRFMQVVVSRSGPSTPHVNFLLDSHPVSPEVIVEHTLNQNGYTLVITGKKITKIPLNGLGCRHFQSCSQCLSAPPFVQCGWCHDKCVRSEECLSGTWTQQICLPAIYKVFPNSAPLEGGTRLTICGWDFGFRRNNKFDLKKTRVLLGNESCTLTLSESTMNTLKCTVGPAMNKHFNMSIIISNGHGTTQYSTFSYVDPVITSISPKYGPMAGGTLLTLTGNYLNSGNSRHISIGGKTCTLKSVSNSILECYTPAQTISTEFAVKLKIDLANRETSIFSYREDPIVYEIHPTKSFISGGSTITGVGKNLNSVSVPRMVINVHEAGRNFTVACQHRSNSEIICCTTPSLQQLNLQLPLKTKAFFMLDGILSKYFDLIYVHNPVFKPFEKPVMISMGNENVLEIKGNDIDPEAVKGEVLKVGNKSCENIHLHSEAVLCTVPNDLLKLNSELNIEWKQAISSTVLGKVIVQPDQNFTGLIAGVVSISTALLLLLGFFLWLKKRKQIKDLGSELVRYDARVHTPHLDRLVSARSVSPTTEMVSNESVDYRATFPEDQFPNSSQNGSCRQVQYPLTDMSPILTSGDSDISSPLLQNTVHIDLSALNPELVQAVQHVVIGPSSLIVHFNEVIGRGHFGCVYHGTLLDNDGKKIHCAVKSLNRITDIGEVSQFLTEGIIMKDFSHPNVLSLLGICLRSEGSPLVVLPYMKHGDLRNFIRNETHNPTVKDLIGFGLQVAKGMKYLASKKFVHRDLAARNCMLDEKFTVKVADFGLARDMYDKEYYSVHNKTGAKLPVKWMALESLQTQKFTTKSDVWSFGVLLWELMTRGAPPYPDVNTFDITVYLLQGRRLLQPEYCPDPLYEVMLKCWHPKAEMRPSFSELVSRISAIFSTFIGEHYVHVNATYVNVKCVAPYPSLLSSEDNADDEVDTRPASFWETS
Chain of RON (human) (Q04912 25-1400): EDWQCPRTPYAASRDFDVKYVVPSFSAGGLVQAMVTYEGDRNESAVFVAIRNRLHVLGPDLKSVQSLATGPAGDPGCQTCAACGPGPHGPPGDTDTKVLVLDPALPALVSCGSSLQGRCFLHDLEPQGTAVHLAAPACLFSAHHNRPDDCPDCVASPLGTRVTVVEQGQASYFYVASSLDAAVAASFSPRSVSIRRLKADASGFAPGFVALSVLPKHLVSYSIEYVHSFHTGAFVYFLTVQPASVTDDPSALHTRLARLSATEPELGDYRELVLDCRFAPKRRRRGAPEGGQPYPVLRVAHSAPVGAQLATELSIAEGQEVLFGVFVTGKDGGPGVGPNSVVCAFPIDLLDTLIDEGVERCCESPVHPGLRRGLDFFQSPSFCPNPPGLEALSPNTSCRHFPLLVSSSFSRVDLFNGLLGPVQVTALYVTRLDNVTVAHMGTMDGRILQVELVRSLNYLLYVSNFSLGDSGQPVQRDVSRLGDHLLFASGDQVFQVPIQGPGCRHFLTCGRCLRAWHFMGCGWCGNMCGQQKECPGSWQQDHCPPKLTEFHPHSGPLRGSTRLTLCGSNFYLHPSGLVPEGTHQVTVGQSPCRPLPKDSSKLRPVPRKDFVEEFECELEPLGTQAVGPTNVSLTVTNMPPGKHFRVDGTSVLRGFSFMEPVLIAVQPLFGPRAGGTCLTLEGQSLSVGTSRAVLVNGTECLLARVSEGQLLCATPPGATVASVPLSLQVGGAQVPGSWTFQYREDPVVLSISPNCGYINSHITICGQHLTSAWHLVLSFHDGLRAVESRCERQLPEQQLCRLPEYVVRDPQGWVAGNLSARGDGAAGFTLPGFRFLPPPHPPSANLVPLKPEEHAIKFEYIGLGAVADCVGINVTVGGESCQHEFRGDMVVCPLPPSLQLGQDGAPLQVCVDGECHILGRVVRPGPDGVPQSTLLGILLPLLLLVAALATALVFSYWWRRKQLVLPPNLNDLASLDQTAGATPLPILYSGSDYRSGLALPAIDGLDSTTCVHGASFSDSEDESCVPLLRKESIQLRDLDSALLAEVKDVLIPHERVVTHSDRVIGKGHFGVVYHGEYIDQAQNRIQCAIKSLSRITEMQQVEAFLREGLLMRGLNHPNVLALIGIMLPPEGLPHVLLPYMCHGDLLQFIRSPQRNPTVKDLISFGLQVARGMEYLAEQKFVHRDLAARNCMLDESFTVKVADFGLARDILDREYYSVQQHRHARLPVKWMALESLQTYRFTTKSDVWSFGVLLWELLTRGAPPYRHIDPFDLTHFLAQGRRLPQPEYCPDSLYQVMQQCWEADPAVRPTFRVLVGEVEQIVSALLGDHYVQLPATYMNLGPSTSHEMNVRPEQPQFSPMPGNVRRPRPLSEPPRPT

SMILES: C[C@@H](Oc1c(N)ncc2c(-c3ccc(S(C)(=O)=O)cc3)coc12)c1c(Cl)ccc(F)c1Cl [Example 62, 7-[(R)-1-(2,6-Dichloro-3-fluorophenyl)ethoxy]-3-(4-methane-sulfonylphenyl)furo[3,2-c]pyridin-6-ylamine]
- IC50 [1]: 500 to 5000 nM
- IC50 [2]: 500 to 5000 nM

SMILES: C[C@@H](Oc1c(N)ncc2c(-c3cncnc3)coc12)c1c(Cl)ccc(F)c1Cl [Example 112, 7-[(R)-1-(2,6-Dichloro-3-fluorophenyl)ethoxy]-3-pyrimidin-5-ylfuro[3,2-c]pyridin-6-ylamine]
- IC50 [1]: 500 to 5000 nM
- IC50 [2]: 500 to 5000 nM

SMILES: C[C@@H](Oc1c(N)ncc2c(-c3cccc(CO)c3)coc12)c1c(Cl)ccc(F)c1Cl [Example 57, (3-{6-Amino-7-[(R)-1-(2,6-dichloro-3-fluorophenyl)ethoxy]-furo[3,2-c]pyridin-3-yl}phenyl)methanol]
- IC50 [1]: 500 to 5000 nM
- IC50 [2]: 500 to 5000 nM

SMILES: C[C@@H](Oc1c(N)ncc2c(C3=CCN(S(=O)(=O)C4CC4)CC3)coc12)c1c(Cl)ccc(F)c1Cl [Example 48, 3-(1-Cyclopropanesulfonyl-1,2,3,6-tetrahydropyridin-4-yl)-7-[(R)-1-(2,6-dichloro-3-fluorophenyl)-ethoxy]-furo[3,2-c]pyridin-6-ylamine]
- IC50 [1]: 500 to 5000 nM
- IC50 [2]: < 500 nM

SMILES: C[C@@H](Oc1c(N)ncc2c(C3=CC4CCC(C3)N4C)coc12)c1c(Cl)ccc(F)c1Cl (stereo partly drawn) [Example 164, 7-[(1R)-1-(2,6-Dichloro-3-fluorophenyl)ethoxy]-3-(8-methyl-8-azabicyclo[3.2.1]oct-2-en-3-yl)furo[3,2-c]pyridin-6-amine]
- IC50 [1]: < 500 nM
- IC50 [2]: < 500 nM

SMILES: C[C@@H](Oc1c(N)ncc2c(-c3ccc(NC(N)=O)cc3)coc12)c1c(Cl)ccc(F)c1Cl [Example 108, (4-{6-Amino-7-[(R)-1-(2,6-dichloro-3-fluorophenyl)ethoxy]furo[3,2-c]pyridin-3-yl}phenyl)urea]
- IC50 [1]: 500 to 5000 nM
- IC50 [2]: 500 to 5000 nM

SMILES: C[C@@H](Oc1c(N)ncc2c(-c3cnc(N)nc3)coc12)c1c(Cl)ccc(F)c1Cl [Example 113, 3-(2-Amino-pyrimidin-5-yl)-7-[(R)-1-(2,6-dichloro-3-fluorophenyl)ethoxy]furo[3,2-c]pyridin-6-ylamine]
- IC50 [1]: 500 to 5000 nM
- IC50 [2]: 500 to 5000 nM

SMILES: C[C@@H](Oc1c(N)ncc2c(-c3cccc(CN4CCCCC4)c3)coc12)c1c(Cl)ccc(F)c1Cl [Example 91, 7-[(R)-1-(2,6-Dichloro-3-fluorophenyl)ethoxy]-3-(3-piperidin-1-ylmethylphenyl)furo[3,2-c]pyridin-6-ylamine]
- IC50 [1]: < 500 nM
- IC50 [2]: < 500 nM

SMILES: C[C@@H](Oc1c(N)ncc2c(-c3ccc(C(=O)N4CCNCC4)cc3)coc12)c1c(Cl)ccc(F)c1Cl [Example 106, (4-{6-Amino-7-[(R)-1-(2,6-dichloro-3-fluorophenyl)ethoxy]furo[3,2-c]pyridin-3-yl}phenyl)piperazin-1-ylmethanone]
- IC50 [1]: < 500 nM
- IC50 [2]: < 500 nM

SMILES: C[C@@H](Oc1c(N)ncc2c(-c3cccc(C(=O)N(C)C)c3)coc12)c1c(Cl)ccc(F)c1Cl [Example 73, 3-{6-Amino-7-[(R)-1-(2,6-dichloro-3-fluorophenyl)ethoxy]-furo[3,2-c]pyridin-3-yl}-N,N-dimethylbenzamide]
- IC50 [1]: 500 to 5000 nM
- IC50 [2]: 500 to 5000 nM

SMILES: C[C@@H](Oc1c(N)ncc2c(-c3cccc(C(=O)NCCN4CCOCC4)c3)coc12)c1c(Cl)ccc(F)c1Cl [Example 97, 3-{6-Amino-7-[(R)-1-(2,6-dichloro-3-fluorophenyl)ethoxy]-furo[3,2-c]pyridin-3-yl}-N-(2-morpholin-4-ylethyl)benzamide]
- IC50 [1]: 500 to 5000 nM
- IC50 [2]: 500 to 5000 nM

SMILES: C[C@@H](Oc1c(N)ncc2c(C3=CCN(C(C)(C)C)CC3)coc12)c1c(Cl)ccc(F)c1Cl [Example 163, 3-(1-tert-Butyl-1,2,3,6-tetrahydropyridin-4-yl)-7-[(1R)-1-(2,6-dichloro-3-fluorophenyl)ethoxy]furo[3,2-c]pyridin-6-amine]
- IC50 [1]: < 500 nM
- IC50 [2]: < 500 nM

SMILES: C[C@@H](Oc1c(N)ncc2c(-c3ccc(O)cc3)coc12)c1c(Cl)ccc(F)c1Cl [Example 59, 4-{6-Amino-7-[(R)-1-(2,6-dichloro-3-fluorophenyl)ethoxy]-furo[3,2-c]pyridin-3-yl}phenol]
- IC50 [1]: 500 to 5000 nM
- IC50 [2]: 500 to 5000 nM

Now from value to compound:

- IC50 [1]: 500 to 5000 nM
- IC50 [2]: < 500 nM
SMILES: CC(Oc1c(N)ncc2c(C3=CCN(C(N)=O)CC3)coc12)c1c(Br)ccc(F)c1Cl (stereo not drawn) [Example 457, 4-{6-Amino-7-[1-(6-bromo-2-chloro-3-fluorophenyl)ethoxy]furo[3,2-c]pyridin-3-yl}-3,6-dihydro-2H-pyridine-1-carboxamide]

- IC50 [1]: 500 to 5000 nM
- IC50 [2]: < 500 nM
SMILES: C[C@H](Oc1c(N)ncc2c(-c3cnn(C4CCNCC4)c3)coc12)c1ccncc1 [Example 396, 3-(1-Piperidin-4-yl-1H-pyrazol-4-yl)-7-((S)-1-pyridin-4-yl-ethoxy)furo[3,2-c]pyridin-6-ylamine]

- IC50 [1]: < 500 nM
- IC50 [2]: < 500 nM
SMILES: CC(Oc1c(N)ncc2c(-c3cnn(C4CCNCC4)c3)coc12)c1c(Cl)c(F)cc(OCCCN(C)C)c1Cl (stereo not drawn) [Example 156, 7-(1-{2,6-Dichloro-3-[3-(dimethylamino)propoxy]-5-fluorophenyl}ethoxy)-3-[1-(piperidin-4-yl)-1H-pyrazol-4-yl]furo[3,2-c]pyridin-6-amine]

- IC50 [1]: 500 to 5000 nM
- IC50 [2]: 500 to 5000 nM
SMILES: C[C@@H](Oc1c(N)ncc2c(-c3ccc4cc[nH]c4c3)coc12)c1c(Cl)ccc(F)c1Cl [Example 129, 7-[(R)-(2,6-Dichloro-3-fluorophenyl)ethoxy]-3-(1H-indol-6-yl)furo[3,2-c]pyridin-6-ylamine]

- IC50 [1]: 500 to 5000 nM
- IC50 [2]: 500 to 5000 nM
SMILES: C[C@@H](Oc1c(N)ncc2c(-c3cccn3C)coc12)c1c(Cl)ccc(F)c1Cl [Example 121, 7-[(R)-1-(2,6-Dichloro-3-fluorophenyl)ethoxy]-3-(1-methyl-1H-pyrrol-2-yl)furo[3,2-c]pyridin-6-ylamine]

- IC50 [1]: 5000 to 20000 nM
- IC50 [2]: 500 to 5000 nM
SMILES: C[C@@H](Oc1c(N)ncc2c(-c3cc(C(=O)NC(C)(C)C)cs3)coc12)c1c(Cl)ccc(F)c1Cl [Example 331, 5-{6-Amino-7-[(R)-1-(2,6-dichloro-3-fluorophenyl)ethoxy]furo[3,2-c]pyridin-3-yl}thiophene-3-carboxylic acid tert-butylamide]

- IC50 [1]: 500 to 5000 nM
- IC50 [2]: 500 to 5000 nM
SMILES: COC(=O)c1cccc(C(C)Oc2c(N)ncc3c(-c4cnn(C5CCNCC5)c4)coc23)c1 (stereo not drawn) [Example 410, 3-{1-[6-Amino-3-(1-piperidin-4-yl-1H-pyrazol-4-yl)furo[3,2-c]pyridin-7-yloxy]ethyl}benzoic acid methyl ester]

- IC50 [1]: < 500 nM
- IC50 [2]: < 500 nM
SMILES: C[C@H](N)C(=O)N1CC=C(c2coc3c(O[C@H](C)c4c(Cl)ccc(F)c4Cl)c(N)ncc23)CC1 [Example 251, (2S)-2-Amino-1-[4-{6-amino-7-[(1R)-1-(2,6-dichloro-3-fluoro-phenyl)ethoxy]furo[3,2-c]pyridin-3-yl}-3,6-dihydropyridin-1(2H)-yl]propan-1-one]

- IC50 [1]: 500 to 5000 nM
- IC50 [2]: 500 to 5000 nM
SMILES: C[C@@H](Oc1c(N)ncc2c(-c3ccc(N4CCN(C(N)=O)CC4)cc3)coc12)c1c(Cl)ccc(F)c1Cl [Example 320, 4-(4-{6-Amino-7-[(R)-1-(2,6-dichloro-3-fluorophenyl)ethoxy]furo[3,2-c]pyridin-3-yl}phenyl)piperazine-1-carboxamide]

- IC50 [1]: 500 to 5000 nM
- IC50 [2]: 500 to 5000 nM
SMILES: C[C@@H](Oc1c(N)ncc2c(-c3cnn(C4CCNCC4)c3)c(C#N)oc12)c1c(Cl)ccc(F)c1Cl [Example 169, 6-Amino-7-[(R)-1-(2,6-dichloro-3-fluorophenyl)ethoxy]-3-(1-piperidin-4-yl-1H-pyrazol-4-yl)-furo[3,2-c]pyridine-2-carbonitrile]

- IC50 [1]: < 500 nM
- IC50 [2]: < 500 nM
SMILES: CC(Oc1c(N)ncc2c(-c3cnn(C4CCNCC4)c3)coc12)c1c(Cl)c(F)cc(OC2CNC2)c1Cl (stereo not drawn) [Example 159, 7-{1-[3-(Azetidin-3-yloxy)-2,6-dichloro-5-fluorophenyl]ethoxy}-3-[1-(piperidin-4-yl)-1H-pyrazol-4-yl]furo[3,2-c]pyridin-6-amine]

- IC50 [1]: 500 to 5000 nM
- IC50 [2]: < 500 nM
SMILES: CCC(Oc1c(N)ncc2c(-c3cnn(C4CCNCC4)c3)coc12)c1c(Cl)cccc1Cl (stereo not drawn) [Example 340, 7-[1-(2,6-Dichlorophenyl)propoxy]-3-(1-piperidin-4-yl-1H-pyrazol-4-yl)furo[3,2-c]pyridin-6-ylamine]

- IC50 [1]: 500 to 5000 nM
- IC50 [2]: < 500 nM
SMILES: CC(Cc1ccc(F)cc1)Oc1c(N)ncc2c(-c3cnn(C4CCNCC4)c3)coc12 (stereo not drawn) [Example 425, 7-[2-(4-Fluorophenyl)-1-methylethoxy]-3-(1-piperidin-4-yl-1H-pyrazol-4-yl)furo[3,2-c]pyridin-6-ylamine]

- IC50 [1]: 500 to 5000 nM
- IC50 [2]: < 500 nM
SMILES: CC(Oc1c(N)ncc2c(-c3cnn(C4CCNCC4)c3)coc12)c1cccc(Cl)c1 (stereo not drawn) [Example 385, 7-[1-(3-Chlorophenyl)ethoxy]-3-(1-piperidin-4-yl-1H-pyrazol-4-yl)furo[3,2-c]pyridin-6-ylamine]
